According to patent US20250161287A1, “METHODS, COMPOSITIONS, AND COMBINATIONS FOR PREVENTING OR TREATING CANCER RECURRENCE” (VUJA DE SCIENCES, INC., priority 2022, published 2025):
Several values for one entry are separate records, joined by “and”; a condition that tells them apart may be missing. Equal values may be shown once. Entries after “also recorded” stand apart in the source; their conditions may differ. Read-outs that look alike come from different tables or passages of the source.

What was measured:
[1] = system: MG63.3 OS cell line; assay: in vitro 3D BME assay with MG63.3 OS cell line; format: cell-based, human; conditions: for activity on 3D BME compared with 2D: MG63.3, 3D BME vs 2D MTT 72 h; for 3D activity and selectivity for ME in a screen of 10 HDAC inhibitors: selectivity = ratio of 3D to 2D % inhibition at the same dose, Class I, Class II, pan-HDAC; for 3D growth inhibition and selectivity for ME at selected dose: givinostat 400 nM, quisinostat 10 nM; for 3D growth inhibition and selectivity for ME at selected dose / earlier (2 days on, 4 days off) vs later (2 days off, 4 days on) treatment: MG63.3 3D BME
Description: 3D basement membrane extract (BME) assay was developed at the NCI Barkan (D. Barkan et al. 2008; Dalit Barkan and Green 2011; Hen and Barkan 2020). BME is purified from Engelbreth-Holm-Swarm (EHS) tumor, primarily made up of laminin, collagen IV, entactin, and heparin sulfate proteoglycans (Cultrex Reduced Growth Factor Basement Membrane Extract, PathClear n.d.), which allows it to more accurately reflect the 3D extracellular environment in the body.
Initially >150 selected therapeutic agents were tested on BME based on the likelihood for either a positive effect or a […] negative effect (as negative controls). […] These therapeutic agents were also tested in dose response (as broad as 1 pM-100 μM) for 2D cytotoxicity (MTT) and the IC50 was calculated. Where required, the hits from the initial screen were also further characterized at additional doses <100 nM in order to further determine the relative selectivity compared to the 2D IC50.
The influence of drug exposure on the metastatic phenotype was assessed in an in vitro assay of ME and escape from dormancy using a 3D BME assay as previously reported, which was adapted for use with OS cells.
Cultrex® PathClear, Reduced Growth Factor Basement Membrane Extract (BME—Bio-Techne, Minneapolis, MN) was added ([…]) to a 96-well plate and allowed to gel by incubating at 37° C. for ≥30 min. Cells were harvested, washed with DMEM (no glucose, no FBS, Gibco, Grand Island, NY) and centrifuged at 1500 g×5 mins. The media was aspirated and the remaining cell pellet flicked for about 10 s to ensure disaggregation.
Cells were diluted in assay media containing 2% BME, resuspended vigorously and 150 μL of the cell suspension was added on top of the gelled 3D BME layer. […] Cell numbers were determined in control vehicle (cells in media+0.1% DMSO), or treated wells and were measured on the indicated days by addition of 20 μL/well of MTS reagent (Cell Titer 96 Aqueous One, Promega, Madison, WI), followed by incubation at 37° C. for 2 h and absorbance measurements at 490 nm via plate reader (Molecular Devices, San Jose CA).
All conditions were conducted in quadruplicate and each experiment was carried out at least 3 separate times. All comparisons were made between treatment and vehicle control at concordant time points. Statistical analyses and non-linear regressions were derived using GraphPad Prism statistical software.

[2] = system: MG63.3 OS cell line; assay: 2D growth / cytotoxicity by MTT, MG63.3; conditions: for doses exhibiting cytotoxicity on 2D growth: 72 h
Method: The number of viable cells present in 2D culture was determined by MTT as previously reported. Briefly, cells were plated in 96-well plates at 2,000 cells/well and incubated at 37° C. for 24 h. After 24 h, the media was replaced with fresh media containing drugs at the desired concentrations (10 pM-10 μM) and incubated at 37° C. for 72 h. After 72 h, MTT reagent (20 L/well of a 5 mg/mL stock solution in sterile water; Sigma, St. Louis, MO) was added to each well and the plate was incubated at 37° C. for 2 h. DMSO ([…]) was then added to each well to solubilize the formazan crystals.
The resulting absorbance was measured at 490 nm via plate reader (Molecular Devices, San Jose, CA). DMSO (0.1%) was used as vehicle control, while 20 μM rapamycin was used as a positive cell-kill control. The experimental conditions were conducted in triplicate and each experiment was repeated three times. Regression lines and IC50's were calculated using a four-parameter variable slope nonlinear fit in GraphPad Prism.

[3] = MG63.3 on 3D BME, vs vehicle control, replicates=4
[4] = Homo sapiens, MG-63.3, MG63.3 on 3D BME, vs vehicle control, replicates=4, read-out: lowest dose leading to appreciable inhibition of 3D growth
[5] = Homo sapiens, MG-63.3, read-out: lowest dose leading to appreciable inhibition of 3D growth
[6] = MG63.3 on 3D BME, vs vehicle control, replicates=4, read-out: lowest dose leading to appreciable inhibition of 3D growth
[7] = domatinostat 100-200 nM, MG63.3

| SMILES | minimal effective concentration [1, 4] [µM] | activity on 3D BME compared with 2D [1] | doses exhibiting cytotoxicity on 2D growth ([2]; human) | further results |
| --- | --- | --- | --- | --- |
| CC(C)[C@]12O[C@H]1[C@@H]1O[C@]13[C@]1(O[C@H]1C[C@H]1C4=C(CC[C@@]13C)C(=O)OC4)[C@@H]2OCOP(=O)(O)O [minnelide] | – | – | – | lowest dose leading to complete inhibition of 3D growth [1, 3]: 4 nM; doses exhibiting cytotoxicity on 2D growth ([2]; MG63.3, MTT, replicates=3): ≥ 0.781 nM |
| COc1cc(Nc2ncc3c(n2)-c2ccc(Cl)cc2C(c2c(F)cccc2OC)=NC3)ccc1C(=O)O [alisertib] | 0.0125 | much stronger activity on 3D BME at significantly lower doses | > 25 nM | – |
| O=C(NC[C@H](O)CO)c1ccncc1Nc1ccc(I)cc1F [pimasertib] | – | – | above 1 nM | lowest dose leading to complete inhibition of 3D growth [1, 3]: 100 nM |
| CCN(CC)Cc1ccc2cc(COC(=O)Nc3ccc(C(=O)NO)cc3)ccc2c1 [givinostat] | 0.3 | more active in 3D than in 2D | ≥ 600 nM | 3D activity and selectivity for ME in a screen of 10 HDAC inhibitors ([1]; MG63.3): highest 3D activity and selectivity for ME; 3D growth inhibition and selectivity for ME at selected dose [1]: significant 3D growth inhibition and selectivity for ME |
| C=CCNC1=C2C[C@@H](C)C[C@H](OC)[C@H](O)[C@@H](C)/C=C(\C)[C@H](OC(N)=O)[C@@H](OC)/C=C\C=C(/C)C(=O)NC(=CC1=O)C2=O [tanespimycin] | – | – | – | minimal effective concentration [1, 5]: 0.025 µM; doses exhibiting cytotoxicity on 2D growth ([2]; MG63.3, MTT, replicates=3): > 25 nM |
| Cn1cc(CNCC2CCN(c3ncc(C(=O)NO)cn3)CC2)c2ccccc21 [quisinostat] | 0.01 | more active in 3D than in 2D | ≥ 80 nM | 3D activity and selectivity for ME in a screen of 10 HDAC inhibitors ([1]; MG63.3): highest 3D activity and selectivity for ME; 3D growth inhibition and selectivity for ME at selected dose [1]: significant 3D growth inhibition and selectivity for ME |
| CO[C@H]1C[C@@H]2CC[C@@H](C)[C@@](O)(O2)C(=O)C(=O)N2CCCC[C@H]2C(=O)O[C@H]([C@H](C)C[C@@H]2CC[C@@H](OCCO)[C@H](OC)C2)CC(=O)[C@H](C)/C=C(\C)[C@@H](O)[C@@H](OC)C(=O)[C@H](C)C[C@H](C)/C=C/C=C/C=C/1C [everolimus] | 0.01 | much stronger activity on 3D BME at similar doses | – | cytotoxicity on 2D growth [2]: cytotoxicity across all doses tested |
| O=C(Cc1cccc(OC(F)(F)F)c1)Nc1ccc(CCCCc2nnc(NC(=O)Cc3ccccn3)s2)nn1 [telaglenastat] | 0.001 | much stronger activity on 3D BME at significantly lower doses; also recorded: more active in 3D than in 2D | > 100 nM | minimal effective concentration [1, 6]: 0.001 µM; growth in cell number in 3D BME at highest 2D inactive dose ([1]; telaglenastat 100 nM, MG63.3): 10%; effect in 2D at the same dose ([2]; telaglenastat 100 nM, MG63.3): no statistically significant inhibition; also recorded: inactive |
| COc1c(C)cnc(Cn2cnc3c(Cl)nc(N)nc32)c1C [BIIB021] | 0.008 | much stronger activity on 3D BME at significantly lower doses | > 10 nM | – |
| O=C(CC1NCCCC1O)Cn1cnc2cc(Br)c(Cl)cc2c1=O (centres unmarked) [halofuginone] | – | – | ≥ 12.5 nM | lowest dose leading to >25% inhibition of 3D growth [1, 3]: 3 nM |
| CC(C)n1nc(-c2ccc3oc(N)nc3c2)c2c(N)ncnc21 [sapanisertib] | 0.001 | – | > 8 nM | – |
| O=C(/C=C/c1cccc(S(=O)(=O)Nc2ccccc2)c1)NO [belinostat] | 0.2 | – | ≥ 80 nM | 3D activity and selectivity for ME in a screen of 10 HDAC inhibitors ([1]; MG63.3): 3D activity and selectivity for ME |
| CC(C)[C@]12O[C@H]1[C@@H]1O[C@]13[C@]1(O[C@H]1C[C@H]1C4=C(CC[C@@]13C)C(=O)OC4)[C@@H]2O [triptolide] | – | – | – | lowest dose leading to complete inhibition of 3D growth [1, 3]: 1 nM; cytotoxicity on 2D growth [2]: cytotoxicity at all doses tested |
| CO[C@H]1/C=C\C=C(/C)C(=O)NC2=CC(=O)C(NCCN(C)C)=C(C[C@@H](C)C[C@H](OC)[C@H](O)[C@@H](C)/C=C(\C)[C@@H]1OC(N)=O)C2=O [alvespimycin] | 0.0125 | much stronger activity on 3D BME at significantly lower doses | – | doses exhibiting cytotoxicity on 2D growth ([2]; MG63.3, MTT, replicates=3): > 25 nM |
| O=C(/C=C/c1cccnc1)NCCCCC1CCN(C(=O)c2ccccc2)CC1 [(E)-daporinad] | – | much stronger activity on 3D BME at significantly lower doses | > 0.1 nM | minimal effective concentration [1, 6]: 0.0001 µM |
| CO[C@@]12[C@H](COC(N)=O)C3=C(C(=O)C(C)=C(N)C3=O)N1C[C@@H]1N[C@@H]12 [mitomycin C] | – | much stronger activity on 3D BME at significantly lower doses; also recorded: more active in 3D than in 2D | – | IC50 ([1]; MG63.3): 50 nM; minimal effective concentration [1, 6]: 0.0125 µM; IC50 ([2]; read-out: 2D IC50, MG63.3, MTT 72 h): 1000 nM and ~1000 nM |
| Cn1cc(-c2ccc(S(=O)(=O)n3ccc(/C=C/C(=O)Nc4ccccc4N)c3)cc2)cn1 [domatinostat] | 0.1 | much stronger activity on 3D BME at similar doses; also recorded: more active in 3D than in 2D | ≥ 200 nM | earlier (2 days on, 4 days off) vs later (2 days off, 4 days on) treatment ([1]; FIG. 68, rapamycin 2-16 nM experiment): slightly more inhibition than later treatment; 3D activity and selectivity for ME in a screen of 10 HDAC inhibitors ([1]; MG63.3): highest 3D activity and selectivity for ME; efficacy of domatinostat alone treated for 1 day ([1]; domatinostat 100-200 nM, 1 day on, 5 days off): little to no efficacy; growth inhibition in the 3D BME assay [1, 7]: 20-50%; inhibition of 3D growth relative to vehicle, two schedules ([1]; domatinostat 200-800 nM, Days 3-6 (2 days off, 4 days on) or Days 1-2 (2 days on, 4 days off), P<0.005): significantly inhibition relative to vehicle for both treatment schedules; earlier (2 days on, 4 days off) vs later (2 days off, 4 days on) treatment ([1]; domatinostat 200-800 nM): slightly more inhibition than later treatment; re-treatment on Day 3 vs treated once, inhibition of 3D growth ([1]; rapamycin 1 nM, domatinostat 100 & 150 nM, combination, P<0.01 for all except 100 nM domatinostat alone): significantly increased inhibition relative to the conditions only treated with drug once; inhibition in 2D at these doses [2, 7]: no statistically significant inhibition |
| O=C(NOC[C@H](O)CO)c1ccc(F)c(F)c1Nc1ccc(I)cc1F [PD0325901] | – | much stronger activity on 3D BME at similar doses; also recorded: more active in 3D than in 2D | ≥ 100 nM | minimal effective concentration [1, 5]: 0.001 µM; growth inhibition in the 3D BME assay ([1]; PD0325901 1-128 nM, MG63.3): 50-75%; inhibition in 2D at this dose ([2]; PD0325901 1-128 nM, MG63.3): no statistically significant inhibition |
| Cc1[nH]c2ccccc2c1CCNCc1ccc(/C=C/C(=O)NO)cc1 [panobinostat] | 0.04 | – | ≥ 80 nM | – |
| COc1ccc(-c2nc(N3CCOCC3)c3sc(CN(C)c4ncc(C(=O)NO)cn4)cc3n2)cn1 [fimepinostat] | – | – | ≥ 1 nM | 3D activity and selectivity for ME in a screen of 10 HDAC inhibitors ([1]; MG63.3): 3D activity and selectivity for ME; lowest dose leading to complete inhibition of 3D growth [1, 3]: 5 nM |
